Key:
Assay in all cases: relative viability (nuclei count vs DMSO), 5 days (fraction); higher = more cells survive
[1] = compound: CC1=CC(=CC=C1)NC2=NC(=CS2)C3=CC=NC=C3 + N=C(N)NC(=N)NCCc1ccccc1 [Phenformin] (partner 250 µM)
How it was run: (§1)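 Lung cancer cell lines were pin-tool dosed in 1536-well plates on the day after seeding, with either a lone drug or a fixed anchor-drug dose plus five library-drug doses (not always all listed) in √10 steps. Nuclei were counted on 4× images after 5 days. Relative viability is the ratio of treated-well to vehicle-well nuclei counts, with each value a median of duplicate plates.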

Masitinib + Vorinostat = compound: Cc1ccc(NC(=O)c2ccc(CN3CCN(C)CC3)cc2)cc1Nc1nc(-c2cccnc2)cs1 [Masitinib] + O=C(CCCCCCC(=O)Nc1ccccc1)NO [Vorinostat] (partner 1 µM)
How it was run: as §1

Masitinib + Pictilisib = compound: Cc1ccc(NC(=O)c2ccc(CN3CCN(C)CC3)cc2)cc1Nc1nc(-c2cccnc2)cs1 [Masitinib] + CS(=O)(=O)N1CCN(Cc2cc3nc(-c4cccc5[nH]ncc45)nc(N4CCOCC4)c3s2)CC1 [Pictilisib] (partner 1 µM)
How it was run: as §1

Masitinib + Trametinib = compound: Cc1ccc(NC(=O)c2ccc(CN3CCN(C)CC3)cc2)cc1Nc1nc(-c2cccnc2)cs1 [Masitinib] + CC(=O)Nc1cccc(-n2c(=O)n(C3CC3)c(=O)c3c(Nc4ccc(I)cc4F)n(C)c(=O)c(C)c32)c1 [Trametinib] (partner 0.02 µM)
How it was run: as §1

Cell Line	relative viability ([1]; first compound 0.08 µM)	relative viability ([1]; first compound 0.253 µM)	relative viability ([1]; first compound 0.8 µM)	relative viability ([1]; first compound 2.53 µM)	relative viability ([1]; first compound 8 µM)	relative viability (Masitinib + Vorinostat; first compound 0.01 µM)	relative viability (Masitinib + Vorinostat; first compound 0.03162 µM)	relative viability (Masitinib + Vorinostat; first compound 0.1 µM)	relative viability (Masitinib + Vorinostat; first compound 0.3162 µM)	relative viability (Masitinib + Vorinostat; first compound 1 µM)	relative viability (Masitinib + Pictilisib; first compound 0.01 µM)	relative viability (Masitinib + Pictilisib; first compound 0.03162 µM)	relative viability (Masitinib + Pictilisib; first compound 0.1 µM)	relative viability (Masitinib + Pictilisib; first compound 0.3162 µM)	relative viability (Masitinib + Pictilisib; first compound 1 µM)	relative viability (Masitinib + Trametinib; first compound 0.01 µM)	relative viability (Masitinib + Trametinib; first compound 0.03162 µM)	relative viability (Masitinib + Trametinib; first compound 0.1 µM)	relative viability (Masitinib + Trametinib; first compound 0.3162 µM)	relative viability (Masitinib + Trametinib; first compound 1 µM)
201T	0.389	0.38	0.44	0.375	0.433	0.74	1.05	0.774	0.78	0.914	0.642	0.623	0.646	0.556	0.639	0.599	0.712	0.628	0.745	0.719
A549	0.179	0.179	0.15	0.169	0.235	–	–	–	–	–	0.459	0.48	0.478	0.576	0.566	–	–	–	–	–
A-427	0.355	0.28	0.355	0.326	0.244	0.608	0.827	0.791	0.826	0.827	–	0.55	–	0.687	0.601	0.623	0.74	0.842	0.75	0.676
ABC-1	0.229	0.223	0.193	0.221	0.31	1.05	0.997	1.44	1.15	0.877	0.686	0.623	0.977	0.652	0.61	–	–	–	–	–
BEN	0.27	0.254	0.285	0.266	0.25	0.616	0.533	0.557	0.528	0.557	0.638	0.51	0.71	0.555	0.627	1.15	0.964	1.13	1.11	1.09
CAL-12T	0.513	0.518	0.604	0.537	0.516	0.942	0.756	0.904	0.986	0.684	0.519	0.377	0.694	0.392	0.293	0.374	0.347	0.325	0.307	0.419
COR-L23	0.414	0.378	0.443	0.377	0.406	0.532	0.411	0.435	0.46	0.373	0.751	0.749	0.844	0.932	0.893	0.543	0.641	0.673	0.686	0.571
COR-L 105	0.429	0.495	0.534	0.388	0.496	0.741	1.09	0.971	0.78	0.841	0.396	0.356	0.395	0.412	0.428	0.475	0.438	0.413	0.411	0.388
Calu-6	–	–	–	–	–	–	–	–	–	–	0.905	0.857	1.06	0.988	0.861	–	–	–	–	–
ChaGo-K-1	0.445	0.439	0.5	0.409	0.464	0.901	0.711	0.853	0.775	0.732	0.929	0.466	0.929	0.823	0.598	0.972	0.852	0.986	0.909	0.906
EBC-1	–	–	–	–	–	–	–	–	–	–	0.348	0.357	0.427	0.309	0.413	–	–	–	–	–
EKVX	0.225	0.212	0.228	0.204	0.215	0.626	0.653	0.643	0.678	0.696	–	0.364	0.463	0.275	0.412	0.38	0.27	0.353	–	0.249
EMC-BAC-2	0.415	0.505	0.58	0.541	0.491	0.38	–	0.441	0.445	0.335	0.553	0.518	0.58	0.552	0.503	0.576	–	0.705	0.806	0.821
EPLC-272H	0.275	0.224	0.332	0.307	0.294	0.4	–	0.392	0.464	0.425	0.29	0.304	0.319	0.284	0.293	0.28	0.35	0.376	0.268	0.237
H3255	0.372	0.374	0.365	0.4	0.414	0.9	0.9	0.544	0.584	0.761	0.489	0.501	0.542	0.456	0.407	0.471	0.619	0.499	0.565	0.582
HARA	0.338	0.476	0.413	0.427	0.347	0.498	0.539	0.57	0.521	0.485	0.389	0.331	0.448	0.372	0.412	0.767	0.627	0.946	–	0.897
HCC-15	0.424	0.462	0.483	0.501	0.438	0.789	0.814	0.868	0.827	0.811	0.604	0.72	0.672	0.77	0.686	0.364	0.373	0.389	0.234	0.354
HCC-44	0.128	0.198	0.3	0.171	0.294	0.914	1.1	1.06	1.06	1.03	0.633	0.436	0.59	0.509	0.543	0.811	1.04	0.989	0.853	1.07
HCC-78	–	0.628	0.527	0.631	0.75	0.485	0.435	0.468	0.47	0.388	0.206	0.19	0.23	0.19	0.223	0.509	0.787	0.746	0.745	0.65
HCC-366	0.635	0.601	0.576	0.607	0.505	–	0.335	0.344	0.249	0.334	0.119	0.0994	0.131	0.115	0.138	–	0.275	0.407	0.333	0.34

Cell Line	relative viability ([1]; first compound 0.08 µM)	relative viability ([1]; first compound 0.253 µM)	relative viability ([1]; first compound 0.8 µM)	relative viability ([1]; first compound 2.53 µM)	relative viability ([1]; first compound 8 µM)	relative viability (Masitinib + Vorinostat; first compound 0.01 µM)	relative viability (Masitinib + Vorinostat; first compound 0.03162 µM)	relative viability (Masitinib + Vorinostat; first compound 0.1 µM)	relative viability (Masitinib + Vorinostat; first compound 0.3162 µM)	relative viability (Masitinib + Vorinostat; first compound 1 µM)	relative viability (Masitinib + Pictilisib; first compound 0.01 µM)	relative viability (Masitinib + Pictilisib; first compound 0.03162 µM)	relative viability (Masitinib + Pictilisib; first compound 0.1 µM)	relative viability (Masitinib + Pictilisib; first compound 0.3162 µM)	relative viability (Masitinib + Pictilisib; first compound 1 µM)	relative viability (Masitinib + Trametinib; first compound 0.01 µM)	relative viability (Masitinib + Trametinib; first compound 0.03162 µM)	relative viability (Masitinib + Trametinib; first compound 0.1 µM)	relative viability (Masitinib + Trametinib; first compound 0.3162 µM)	relative viability (Masitinib + Trametinib; first compound 1 µM)
HCC-827	0.416	0.383	0.447	0.445	0.38	0.603	0.845	0.712	0.876	0.745	0.998	0.918	0.977	0.921	0.942	0.508	0.532	0.539	0.603	0.547
HOP-62	0.683	0.609	0.804	0.722	0.65	0.588	0.573	0.681	0.746	0.687	0.652	0.676	0.842	0.71	0.557	0.394	0.361	0.349	0.365	0.375
IA-LM	–	–	–	–	–	0.737	0.747	1.06	1.19	0.957	0.291	0.415	0.353	0.455	0.418	–	–	–	–	–
LC-2-ad	0.556	–	0.568	0.585	0.523	0.546	0.666	0.584	0.694	0.718	0.435	0.46	0.467	0.409	0.412	0.92	0.917	0.911	0.941	0.93
LCLC-97TM1	0.424	0.414	0.456	0.456	0.483	0.534	0.778	0.472	0.887	0.712	0.156	0.172	0.287	0.218	0.2	0.184	0.19	0.19	0.231	0.186
LCLC-103H	0.284	0.308	0.327	0.309	0.27	–	0.778	0.666	0.778	0.761	0.557	0.621	0.596	0.583	0.543	–	0.624	0.693	0.713	0.669
LK-2	–	0.365	0.584	–	0.44	0.246	0.265	0.393	0.225	0.369	0.595	0.656	0.671	0.569	0.641	0.743	0.783	0.828	0.728	0.748
LOU-NH91	0.468	0.364	0.63	0.591	0.744	0.84	0.795	0.884	0.793	0.883	0.497	0.499	0.492	0.432	0.501	0.756	0.765	0.792	0.732	0.772
LU99A	0.762	0.765	0.863	0.884	0.821	0.455	0.433	0.492	0.534	0.467	0.324	0.332	0.346	0.349	0.279	0.619	0.597	0.624	0.559	0.503
LXF-289	0.494	0.522	0.514	0.487	0.487	0.646	0.818	0.65	0.854	0.743	0.729	0.836	0.792	0.846	0.761	0.638	0.707	0.674	0.747	0.699
NCI-H23	0.787	0.711	0.717	0.82	0.779	0.564	0.462	0.547	0.454	0.501	0.434	0.493	0.525	0.495	0.457	0.305	0.368	0.469	0.375	0.354
NCI-H522	0.682	0.687	0.654	0.613	0.655	0.822	0.904	1.07	1.06	0.821	–	–	–	–	–	0.742	0.784	0.787	0.73	0.721
NCI-H1299	–	–	–	–	–	–	–	–	–	–	0.8	0.785	0.81	0.947	0.736	–	–	–	–	–
NCI-H1563	0.725	0.634	0.691	0.733	0.657	–	–	–	–	–	0.656	0.641	0.647	0.665	0.676	–	–	–	–	–
NCI-H1648	–	–	–	–	–	0.471	0.401	0.454	–	0.555	–	–	–	–	–	0.523	0.436	0.414	–	0.442
NCI-H1703	–	–	–	–	–	–	–	–	–	–	0.226	0.255	0.217	0.203	0.201	–	–	–	–	–
NCI-H1792	0.207	0.36	0.373	0.309	0.252	–	–	–	–	–	0.277	0.209	0.288	0.197	0.225	0.427	0.307	0.37	0.503	0.498
NCI-H2342	0.483	0.582	0.603	0.518	0.568	0.789	0.671	0.829	0.856	0.83	–	–	–	–	–	0.89	0.7	0.844	0.797	0.875
SW 900	0.555	0.446	0.673	0.461	0.532	0.48	0.502	0.375	0.259	0.505	–	–	–	–	–	0.719	0.736	0.787	0.821	0.843
